Assay results: patent publication US20050067347A1, “Sustainable process for the treatment and detoxification of liquid waste” (priority 2001, published 2005)

System: Pycnoporus sanguineus MUCL 41582
Experiment: Laccase activity of fungal culture with inductors
Format: cell-based
Settings: for Enzymatic activity: laccase activity, inductor added after 2 days of pre-culture, measured after 5 days of incubation
Method: In an example, the inductors NY3, NY5 and RBBR were added to a fungal culture of Pycnoporus sanguineus MUCL 41582 after 2 days of pre-culture. Laccase activity was measured after 5 days of incubation of the culture with the inductors. Results are indicated in the below-given Table 2 and show clearly that laccase activity is enhanced when the fungus is cultured in the presence of inductors.

Q: With Nc1c(S(=O)(=O)O)cc(NC2CCCCC2)c2c1C(=O)c1ccccc1C2=O [NY3] as the compound, how does the Enzymatic activity read?
A: The Enzymatic activity was 3.87 nmol/mL.

Q: With Cc1ccc(OS(=O)(=O)Oc2ccc(Nc3cc(S(=O)(=O)O)c(N)c4c3C(=O)c3ccccc3C4=O)cc2)cc1 [NY5] as the compound, how does the Enzymatic activity read?
A: The Enzymatic activity was 11.60 nmol/mL.

Q: And the “increase of laccase activity” value (versus culture without inductor)?
A: Its value is “more than 20 fold”.

Q: With Nc1c(S(=O)(=O)[O-])cc(Nc2cccc(S(=O)(=O)CCOS(=O)(=O)[O-])c2)c2c1C(=O)c1ccccc1C2=O.[Na+].[Na+] [RBBR] as the compound, how does the Enzymatic activity read?
A: Its Enzymatic activity is 5.40 nmol/mL.
